Data taken from patent US5318964A, “Hydroxamic derivatives and pharmaceutical compositions” (Hoffmann-La Roche Inc., priority 1992, dated 1994).
pIC50: −log10 of the molar value.

Each compound was assayed against T1, collagenase obtained from a culture of human synovial fibroblasts (Homo sapiens, UniProt P03956) (assay: in vitro collagenase inhibiting activity (14C-acetylated collagen type I from rat tail tendons as substrate, microtitre plate assay)). Details: trypsin-activated collagenase from human synovial fibroblasts; 14C-acetylated collagen type I (rat tail tendons) substrate; concentration reducing substrate cleavage and solubilization to 50% of enzyme alone.
T1 construct: endogenous in cells; host or cells: human synovial fibroblasts in culture (conditioned medium)
T1 sequence (P03956 100-469): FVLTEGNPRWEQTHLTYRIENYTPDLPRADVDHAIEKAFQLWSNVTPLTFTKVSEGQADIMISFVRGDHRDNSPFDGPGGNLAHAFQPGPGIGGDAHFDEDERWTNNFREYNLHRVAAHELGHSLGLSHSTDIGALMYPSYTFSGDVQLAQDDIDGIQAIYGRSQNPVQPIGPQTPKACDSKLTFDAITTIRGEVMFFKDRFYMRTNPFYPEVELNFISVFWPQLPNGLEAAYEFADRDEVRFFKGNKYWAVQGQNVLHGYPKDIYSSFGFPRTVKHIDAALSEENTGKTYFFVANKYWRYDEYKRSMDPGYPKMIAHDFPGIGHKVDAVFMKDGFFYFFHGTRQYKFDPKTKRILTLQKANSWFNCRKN
Type: biochemical
Method: As mentioned earlier, the compounds of formula I and their pharmaceutically acceptable salts are collagenase inhibitors. […] Collagenase activity was measured using ^14 C-acetylated collagen type I from rat tail tendons as the substrate and employing the microtitre plate assay method of Johnson-Wint, B, Anal. Biochem. (1980), 104, 175. The IC50 is that concentration of a compound or salt of the invention in the enzyme digestion which reduces substrate cleavage and solubilization to 50% of that achieved by the enzyme alone.
The results obtained in the foregoing test with representative compounds and salts of the invention are compiled in Table I hereinafter: […]

Row | pIC50 | Compound
1 | 8.15 | CC(C)C[C@@H](C(=O)N1CCSCC1)C(CN1C(=O)CN(C)C1=O)C(=O)NO (single isomer, unassigned) [Compound E, 4-[2(R)-[1(R or S)-(Hydroxycarbamoyl)-2-(3-methyl-2,5-dioxo-1-imidazolidinyl)ethyl]-4-methylvaleryl]tetrahydro-1,4-thiazine]
2 | 8.92 | CNC(=O)[C@@H]1CCCNN1C(=O)[C@H](CC(C)C)C(CN1C(=O)c2ccccc2C1=O)C(=O)NO (single isomer, unassigned) [Compound F, Hexahydro-2-[2(R)-[1(R or S)-(hydroxycarbamoyl)-2-phthalimidoethyl]-4-methylvaleryl]-N-methyl-3(S)-pyridazinecarboxamide]
3 | 8.16 | CC(C)C[C@@H](C(=O)N1CCC(O)CC1)C(CN1C(=O)N(C)C(C)(C)C1=O)C(=O)NO (single isomer, unassigned) [Compound G, 1-[2(R)-[1(R or S)-(Hydroxycarbamoyl)-2-(3,4,4-trimethyl-2,5-dioxo-1-imidazolidinyl)ethyl]-4-methylvaleryl]-4-piperidinol]
4 | 7.82 | CC(C)C[C@@H](C(=O)N1CCCCC1)C(Cn1c(=O)n(C)n(C)c1=O)C(=O)NO (single isomer, unassigned) [Compound D, 1-[2(R)-[1(R or S)-(Hydroxycarbamoyl)-2-(1,2-dimethyl-3,5-dioxo-1,2,4-triazolidin-4-yl)ethyl]-4-methylvaleryl]piperidine]

The next lines start with the compound.

Row | Compound | pIC50
5 | CC(C)C[C@@H](C(=O)N1CCC(O)CC1)C(CN1C(=O)c2ccccc2C1=O)C(=O)NO (single isomer, unassigned) [Compound C, 1-[2(R)-[1(R or S)-(Hydroxycarbamoyl)-2-phthalimidoethyl]-4-methylvaleryl]-4-piperidinol] | 8.30
6 | CC(C)C[C@@H](C(=O)N1CCOCC1)C(CN1C(=O)c2ccccc2C1=O)C(=O)NO (single isomer, unassigned) [Compound A, 4-[2(R)-[1(R or S)-(Hydroxycarbamoyl)-2-phthalimidoethyl]-4-methylvalery]morpholine] | 8.00
7 | CC(C)C[C@@H](C(=O)N1CCSCC1)C(CN1C(=O)c2ccccc2C1=O)C(=O)NO (single isomer, unassigned) [Compound B, 4-[2(R)-[1(R or S)-(Hydroxycarbamoyl)-2-phthalimidoethyl]-4-methylvaleryl]tetrahydro-1,4-thiazine] | 8.22
